Experimental data reported in patent US11702418B2, “SOS1 inhibitors” (priority 2019, dated 2023).
Structures can show the parent of a compound that is named as a salt. Where two headings read alike, the source gives them in different places.

Key:
[1] = test system: pERK in MKN1 cells; experiment: cells; assay type: cell-based; settings: Homo sapiens
[2] = target: recombinant human SOS1 polypeptide (amino acids 560-1049) (Homo sapiens (Human), UniProt Q07889); experiment: biochemical; assay type: binding; settings: read-out: Ki, Inhibition of Labeled Tracer Binding to SOS1
[3] = MKN-1, pERK inhibition, In-Cell Western, MKN1 or H358 cells (Table 24 does not say which), 0.5-1 hour incubation, read-out: IC50
[4] = HTRF displacement, Cy5 labelled tracer, Morrison equation for competitive binding

recombinant human SOS1 polypeptide (amino acids 560-1049), sequence (Q07889 560-1049): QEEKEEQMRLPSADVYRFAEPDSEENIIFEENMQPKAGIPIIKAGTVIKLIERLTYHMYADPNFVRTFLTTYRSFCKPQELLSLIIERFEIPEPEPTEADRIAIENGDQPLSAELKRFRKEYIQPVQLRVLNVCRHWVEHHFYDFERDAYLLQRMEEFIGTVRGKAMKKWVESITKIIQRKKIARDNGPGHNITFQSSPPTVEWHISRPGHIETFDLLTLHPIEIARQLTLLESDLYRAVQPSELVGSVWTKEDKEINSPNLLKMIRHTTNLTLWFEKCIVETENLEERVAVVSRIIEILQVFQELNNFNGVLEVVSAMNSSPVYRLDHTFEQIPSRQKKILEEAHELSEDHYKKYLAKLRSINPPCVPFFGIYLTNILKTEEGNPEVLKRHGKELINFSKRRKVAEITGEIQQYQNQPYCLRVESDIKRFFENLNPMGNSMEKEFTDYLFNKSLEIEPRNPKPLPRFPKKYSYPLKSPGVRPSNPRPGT

Cc1c([C@@H](C)Nc2nnc(C)c3cnc(N4CC5(CCNC5=O)C4)cc23)cccc1C(F)(F)F [Example 12-32]
IC50 [1, 3]: 18 nM | Ki [2, 4]: 0.97 nM

Cc1c(C#N)cccc1[C@@H](C)Nc1nnc(C)c2cnc(N3CCN4CCOC[C@@H]4C3)cc12 [Example 12-27]
IC50 [1, 3]: 14 nM | Ki [2, 4]: 2.81 nM

Cc1c(C#N)cccc1[C@@H](C)Nc1nnc(C)c2cnc(N3CCNCC3)cc12 [Example 12-25]
IC50 [1, 3]: 35 nM | Ki [2, 4]: 2.41 nM

Cc1c([C@@H](C)Nc2nnc(C)c3ccc(N4C[C@H]5CC[C@@H]4CN5C)cc23)cccc1C(F)(F)F [Example 10-32, 4-methyl-N-((R)-1-(2-methyl-3-(trifluoromethyl)phenyl)ethyl)-7-((1R,4R)-5-methyl-2,5-diazabicyclo[2.2.2]octan-2-yl)phthalazin-1-amine]
IC50 [1, 3]: 28 nM | Ki [2, 4]: 0.2 nM

CCN1CCN(c2cc3c(N[C@H](C)c4cccc(C#N)c4C)nnc(C)c3cn2)CC1 [Example 12-52]
IC50 [1, 3]: 60 nM | Ki [2, 4]: 1.06 nM

Cc1c([C@@H](C)Nc2nnc(CN(C)C)c3cnc(N4C[C@H]5C[C@@H]4CO5)cc23)cccc1C(F)(F)F [Example 14-6, 7-((1R,4R)-2-oxa-5-azabicyclo[2.2.1]heptan-5-yl)-4-((dimethylamino)methyl)-N-((R)-1-(2-methyl-3-(trifluoromethyl)phenyl)ethyl)pyrido[3,4-d]pyridazin-1-amine]
IC50 [1, 3]: 142 nM | Ki [2, 4]: 2.56 nM

Cc1cc(C#N)cc([C@@H](C)Nc2nnc(C)c3cnc(N4CCOCC4)cc23)c1 [Example 21-3, (R)-3-methyl-5-(1-((4-methyl-7-morpholinopyrido[3,4-d]pyridazin-1-yl)amino)ethyl)benzonitrile]
IC50 ([1]; MKN-1, pERK inhibition, In-Cell Western, MKN1 or H358 cells (Table 24 does not say which), 0.5-1 hour incubation): 221 nM | Ki [2]: 14.4 nM

Cc1c([C@@H](C)Nc2nnc(C)c3ccc(N4CCNC[C@H](F)C4)cc23)cccc1C(F)(F)F [Example 10-62, 7-((S)-6-fluoro-1,4-diazepan-1-yl)-4-methyl-N-((R)-1-(2-methyl-3-(trifluoromethyl)phenyl)ethyl)phthalazin-1-amine Hydrochloride salt]
IC50 ([1]; MKN-1): 76 nM | Ki [2]: 0.9 nM

Cc1c([C@@H](C)Nc2nnc(C)c3cnc(N4CC(N(C)C)C4)cc23)cccc1C(F)(F)F [Example 12-20]
IC50 [1, 3]: 62 nM | Ki [2, 4]: 1.6 nM

Cc1c([C@@H](C)Nc2nnc(C)c3cnc(N4CC5CC(C4)O5)cc23)cccc1C(F)(F)F [Example 12-2, 7-(6-oxa-3-azabicyclo[3.1.1]heptan-3-yl)-4-methyl-N—((R)-1-(2-methyl-3-(trifluoromethyl)phenyl)ethyl)pyrido[3,4-d]pyridazin-1-amine]
IC50 [1, 3]: 9 nM | Ki [2, 4]: 0.6 nM

Cc1cccc([C@@H](C)Nc2nnc(C)c3cnc(N4CC(C)(N(C)C)C4)cc23)c1F [Example 12-133]
IC50 [1, 3]: 97 nM | Ki [2, 4]: 11.5 nM

Cc1c(C#N)cccc1[C@@H](C)Nc1nnc(C)c2ccc(N3CC(C)(N(C)C)C3)cc12 [Example 10-74, (R)-3-(1-((7-(3-(dimethylamino)-3-methylazetidin-1-yl)-4-methylphthalazin-1-yl)amino)ethyl)-2-methylbenzonitrile Hydrochloride salt]
IC50 ([1]; MKN-1): 65 nM | Ki [2]: 4.26 nM

Cc1c([C@@H](C)Nc2nnc(C)c3cnc(N4C5CCC4COC5)cc23)cccc1C(F)(F)F [Example 12-31]
IC50 [1, 3]: 70 nM | Ki [2, 4]: 1.02 nM

Cc1nnc(N[C@H](C)c2cccc(C(F)F)c2F)c2cc(N3CCN4CCOC[C@@H]4C3)ccc12 [Example 10-86, N-((R)-1-(3-(difluoromethyl)-2-fluorophenyl)ethyl)-7-((S)-hexahydropyrazino[2,1-c][1,4]oxazin-8(1H)-yl)-4-methylphthalazin-1-amine Formate salt]
IC50 ([1]; MKN-1): 21 nM | Ki [2]: 1.51 nM

CNCc1ccccc1-c1ccc([C@@H](C)Nc2nnc(C)c3cnc(N4CCOCC4)cc23)s1 [Example 6-2, (R)-4-methyl-N-(1-(5-(2-((methylamino)methyl)phenyl)thiophen-2-yl)ethyl)-7-morpholinopyrido[3,4-d]pyridazin-1-amine]
IC50 [1, 3]: 100 nM | Ki [2, 4]: 1.35 nM

Cc1nnc(N[C@H](C)c2cc(N)cc(C(F)(F)F)n2)c2cc(N3CC(C)(N(C)C)C3)ccc12 [Example 16-9, (R)-N-(1-(4-amino-6-(trifluoromethyl)pyridin-2-yl)ethyl)-7-(3-(dimethylamino)-3-methylazetidin-1-yl)-4-methylphthalazin-1-amine]
IC50 [1, 3]: 643 nM | Ki [2, 4]: 35.6 nM

Cc1c([C@@H](C)Nc2nnc(C)c3ccc(N4CC[C@H](N(C)C)C(F)(F)C4)cc23)cccc1C(F)(F)F [Example 21-6, 7-((S)-4-(dimethylamino)-3,3-difluoropiperidin-1-yl)-4-methyl-N—((R)-1-(2-methyl-3-(trifluoromethyl)phenyl)ethyl)phthalazin-1-amine]
IC50 [1, 3]: 176 nM | Ki [2, 4]: 0.93 nM

Cc1c(C#N)cccc1[C@@H](C)Nc1nnc(C)c2cc(C(F)(F)F)c(N3CC(C)(O)C3)cc12 [Example 19-3, (R)-3-(1-((7-(3-hydroxy-3-methylazetidin-1-yl)-4-methyl-6-(trifluoromethyl)phthalazin-1-yl)amino)ethyl)-2-methylbenzonitrile]
IC50 [1, 3]: 114 nM | Ki [2, 4]: 19.3 nM

Cc1c([C@@H](C)Nc2nnc(C)c3cnc(N4CCC(N5CCC5)CC4)cc23)cccc1C(F)(F)F [Example 12-33]
IC50 [1, 3]: 55 nM | Ki [2, 4]: 0.3 nM

Cc1c(C#N)cccc1[C@@H](C)Nc1nnc(C)c2cnc(N3CCC(C)(O)CC3)cc12 [Example 12-53]
IC50 [1, 3]: 47 nM | Ki [2, 4]: 0.83 nM

Cc1c([C@@H](C)Nc2nncc3ccc(N4CC(=O)N(C)CC4C)cc23)cccc1C(F)(F)F (stereo partly drawn) [Example 1-26, 1,5-dimethyl-4-(4-(((R)-1-(2-methyl-3-(trifluoromethyl)phenyl)ethyl)amino)phthalazin-6-yl)piperazin-2-one]
IC50 [1, 3]: 57 nM | Ki [2, 4]: 1.16 nM

Cc1nnc(N[C@H](C)c2cccc(C(F)(F)F)c2F)c2cc(N3CC(N(C)C)C3)ncc12 [Example 12-66]
IC50 [1, 3]: 77 nM | Ki [2, 4]: 2.1 nM

Cc1c(Cl)cccc1[C@@H](C)Nc1nnc(C)c2cnc(N3CCOCC3)cc12 [Example 6-18, (R)-N-(1-(3-chloro-2-methylphenyl)ethyl)-4-methyl-7-morpholinopyrido[3,4-d]pyridazin-1-amine]
IC50 [1, 3]: 3700 nM | Ki [2, 4]: 317 nM

Cc1c(C#N)cccc1[C@@H](C)Nc1nnc(C)c2ccc(N3CC(C)(O)C3)cc12 [Example 10-58, (R)-3-(1-((7-(3-hydroxy-3-methylazetidin-1-yl)-4-methylphthalazin-1-yl)amino)ethyl)-2-methylbenzonitrile]
IC50 [1, 3]: 52 nM | Ki [2, 4]: 5.78 nM

CNCc1nnc(N[C@H](C)c2cccc(C(F)(F)F)c2C)c2cc(N3C[C@H]4C[C@@H]3CO4)ncc12 [Example 14-5, 7-((1R,4R)-2-oxa-5-azabicyclo[2.2.1]heptan-5-yl)-N-((R)-1-(2-methyl-3-(trifluoromethyl)phenyl)ethyl)-4-((methylamino)methyl)pyrido[3,4-d]pyridazin-1-amine]
IC50 [1, 3]: 70 nM | Ki [2, 4]: 2.54 nM

Cc1c([C@@H](C)Nc2nnc(C)c3ccc(N4CCC5(CCNCC5)C4=O)cc23)cccc1C(F)(F)F [Example 10-39, (R)-2-(1-methyl-4-((1-(2-methyl-3-(trifluoromethyl)phenyl)ethyl)amino)phthalazin-6-yl)-2,8-diazaspiro[4.5]decan-1-one hydrochloride salt]
IC50 ([1]; MKN-1): 110 nM | Ki [2]: 1.49 nM

Cc1cccc([C@@H](C)Nc2nnc(C)c3cnc(N4CC(C)(O)C4)cc23)c1F [Example 12-132]
IC50 [1, 3]: 76 nM | Ki [2, 4]: 11 nM

Cc1c([C@@H](C)Nc2nnc(C)c3cnc(N4CCN(c5cnn(C)c5)CC4)cc23)cccc1C(F)(F)F [Example 12-1, (R)-4-methyl-7-(4-(1-methyl-1H-pyrazol-4-yl)piperazin-1-yl)-N-(1-(2-methyl-3-(trifluoromethyl)phenyl)ethyl)pyrido[3,4-d]pyridazin-1-amine]
IC50 [1, 3]: 5 nM | Ki [2, 4]: 0.2 nM

Cc1nnc(N[C@H](C)c2cccc(C(F)F)c2F)c2cc(N3C[C@H]4C[C@@H]3CO4)ccc12 [Example 10-85, 7-((1R,4R)-2-oxa-5-azabicyclo[2.2.1]heptan-5-yl)-N-((R)-1-(3-(difluoromethyl)-2-fluorophenyl)ethyl)-4-methylphthalazin-1-amine]
IC50 [1, 3]: 18 nM | Ki [2, 4]: 0.78 nM

Cc1c([C@@H](C)Nc2nnc(C)c3ccc(N4CCN5C(=O)CC[C@@H]5C4)cc23)cccc1C(F)(F)F [Example 10-12, (R)-2-(1-methyl-4-(((R)-1-(2-methyl-3-(trifluoromethyl)phenyl)ethyl)amino)phthalazin-6-yl)hexahydropyrrolo[1,2-a]pyrazin-6(2H)-one]
IC50 [1, 3]: 29 nM | Ki [2, 4]: 0.4 nM

Cc1c(C#N)cccc1[C@@H](C)Nc1nnc(C)c2ccc(N3CC4(CCN(C)C4=O)C3)cc12 [Example 10-69, (R)-2-methyl-3-(1-((4-methyl-7-(6-methyl-5-oxo-2,6-diazaspiro[3.4]octan-2-yl)phthalazin-1-yl)amino)ethyl)benzonitrile]
IC50 [1, 3]: 39 nM | Ki [2, 4]: 3.07 nM

Cc1c(C#N)cc(F)cc1[C@@H](C)Nc1nnc(C)c2cnc(N3CCN4CCOC[C@@H]4C3)cc12 [Example 12-103]
IC50 [1, 3]: 107 nM | Ki [2, 4]: 10.9 nM

Cc1nnc(N[C@H](C)c2cccc(C(F)(F)C(C)(C)O)c2F)c2cc(N3CCN4CCOC[C@@H]4C3)ncc12 [Example 20-2, 1,1-difluoro-1-(2-fluoro-3-((R)-1-((7-((S)-hexahydropyrazino[2,1-c][1,4]oxazin-8(1H)-yl)-4-methylpyrido[3,4-d]pyridazin-1-yl)amino)ethyl)phenyl)-2-methylpropan-2-ol]
IC50 [1, 3]: 8 nM | Ki [2, 4]: 0.75 nM
